Test results as given in patent US5075499A, “Calcium supplementation by dicalcium citrate-lactate” (Board of Regents, The University of Texas System, priority 1988, dated 1991).

Legend:
[1] = Calcium absorption from oral tablets (increment in urinary calcium during the second two hours, Example 5); settings: 400 mg elemental calcium, ten normal volunteers, SD
Method: Calcium absorption was measured from the increment in urinary calcium during the second two hours following the administration of the oral calcium tablets.
The calcium absorption was measured from the increment in urinary calcium during the second two hours following oral calcium load, expressed as mg calcium/dl glomerular filtrate (GF).

[2] = cited from earlier work
[3] = cited from earlier work; for effectiveness in raising urinary citrate compared with tricalcium dicitrate: vs tricalcium dicitrate
[4] = osteoporosis prone postmenopausal women; cited from earlier work
[5] = cited from earlier work; remark: listed apart in the source
[6] = Bulk density of the dried granular composition; format: physicochemical
Method: 38.4 grams of citric acid powder and 40 grams of calcium carbonate were thoroughly mixed in a large beaker. 36 grams of lactic acid, 50 weight percent solution, was slowly added with rapid stirring. 40 grams of water was then introduced slowly in small portions, each portion was added after the CO2 evolution slowed or ceased. After drying, the material was sized and found to have a bulk density greater than 1.1 g/cc. Bulk density was determined by an Archimedean method. This dense granular dicalcium citrate-lactate was subjected to compression tableting to form tablets containing 10 meq (200 milligrams) of calcium, and 7.5 meq (472 milligrams) of citrate, with a size of 0.29 (7.47 millimeters) inch by 0.74 (1.9 centimeters) inch.
The dicalcium citrate-lactate tablets of the present invention were also produced on a large scale. 38.4 kilograms of citric acid powder and calcium carbonate were placed in a Colton 7 cubic ft. ribbon mixer and blended for 2 minutes. Thirty six kilograms of the lactic acid, 50 weight percent solution, were added in approximately three equal portions, 3 minutes apart with continuous mixing. Water (40 kilograms) was added in approximately four equal portions 2-3 minutes apart with continuous mixing. Mixing continued for 10 minutes. The resultant granular and lumpy material was passed through a Fitzmill, knives forward, with no screen, trayed and dried at 212° F.-221° F. (100° C.-105° C.) for three hours. The dried product was sized and its bulk density was determined to be greater than 1.1 g/cc. The sizing was done using a Fitzmill Model No. 6 with a 31262AA screen.
The procedure previously described in Example 2 was followed with the exception of calcium carbonate being replaced by calcium oxide. Dicalcium citrate-lactate having a bulk density of greater than 0.7 g/cc was produced.
The procedure previously described in Example 2 was followed with the exception of calcium carbonate being replaced by calcium hydroxide. Calcium citrate lactate having a bulk density of greater than 0.8 g/cc was produced.

Molecule: O=C(O)CC(O)(CC(=O)O)C(=O)O [tricalcium dicitrate]
- calcium absorption (increment in urinary calcium) [1]: 0.044±0.051 mg/dl GF
- precipitation out of simulated duodenal juice [2]: did not precipitate out of simulated duodenal juice
- urinary citrate ([3]; Harvey, Zobitz and Pak 1985): increased urinary citrate

Molecule: O=C(O)O [calcium carbonate]
- prevention of further bone losses [4]: to a lesser extent

Molecule: O=C(O)[C@H](O)[C@@H](O)[C@H](O)[C@H](O)CO [calcium gluconate]
- aqueous solubility [5]: high aqueous solubility
- effectiveness in raising urinary citrate compared with tricalcium dicitrate [3]: not as effective as tricalcium dicitrate

Molecule: CC(O)C(=O)[O-].O=C([O-])CC(O)(CC(=O)[O-])C(=O)[O-].[Ca+2].[Ca+2] [dicalcium citrate-lactate]
- bulk density ([6]; from calcium carbonate, large batch (Example 2)): greater than 1.1 g/cc
- bulk density ([6]; from calcium carbonate, small batch (Example 1), Archimedean method): greater than 1.1 g/cc
- bulk density ([6]; from calcium hydroxide, large batch (Example 4)): greater than 0.8 g/cc
- bulk density ([6]; from calcium oxide, large batch (Example 3)): greater than 0.7 g/cc

Molecule: estrogen
- prevention of further bone losses [4]: further bone losses in osteoporosis prone postmenopausal women may be prevented

Molecule: CC(O)C(=O)O (stereo not drawn) [calcium lactate]
- effectiveness in raising urinary citrate compared with tricalcium dicitrate [3]: not as effective as tricalcium dicitrate
